According to patent publication US8470763B2, “Alpha-amino-N-substituted amides, pharmaceutical composition containing them and uses thereof” (Shanghai Institute of Materia Medica Chinese Academy of …, priority 2007, dated 2013):
Where two headings read alike, the source gives them in different places.

Legend:
[1] = system: MDA-MB-435S human breast cancer cells; assay: MTT assay, proliferation of MDA-MB-435S cells; format: cell-based; settings: Homo sapiens, 72 h
Procedure: The experiments for evaluating the antineoplasmic activities of the compounds according to the present invention were carried out, and the compounds' antineoplasmic activities in vitro was evaluated by determining the inhibitory activities thereof against the proliferation of MDA-MB-435S human breast cancer cells.
The antineoplasmic activities were determined by using the MTT assay, which is based on the metabolic reduction of 3-(4,5-dimethylthylthiazol-2-yl)-2,5-diphenyl tetrazolium bromide (MTT). The dehydrogenases, which are related to NADP (niacinamide adenine dinucleotide phosphate, coenzyme) and present in mitochondrions of living cells, can reduce the yellow MTT to an insoluble, dark purple formazan. […] After the formazan is dissolved in DMSO, the optical density is determined on an ELISA Reader at the wavelength of 550/690 nm.
(§1) The adhered MDA-MB-4355 cells in logarithmic growth phase, were digested by 0.05% trypsogen, counted and formulated into a cell suspension with a medium. After counted, the suspension was inoculated on a 96-well plate with 3000 cells and 100 μl medium per well. The inoculated 96-well plate was placed overnight in an incubator at 37 with 5% CO2 to allow the cells to adhere to the wall. On the next day, the administration of the drugs started. Before the administration, into some of the control wells, each was added 20 μl of the MTT solution (5 mg/ml) without removing the medium therein. After incubated for 3 h, the absorption at A550/690 was recorded as the initial cell concentration. For the drug wells, each was added into 100 μl of medium containing 2 μl of compound solution. For the control wells which use DMSO as background control, each was also added into 100 μl of medium containing 2 μl of DMSO. In addition, each experiment was carried out with adriamycin as the positive control. Subsequently, the 96-well plate was incubated in an incubator at 37 with 5% CO2 for 72 h. each compound was tested in triplicate wells (6 μl of compound solution was put into a sterilized eppendorf centrifuge tube, then 300 μl of medium was added and mixed well, and the mixture was distributed into 3 wells respectively), and at six concentrations which form a gradient. 3 days (72 h) later, 40 μl of MTT solution (5 mg/ml) was put into each well directly (without sucking off the medium therein), and the plate was incubated in the incubator for 3 h and then taken out. The liquid in each well was sucked off, and then 100 μl of DMSO was put into each well to dissolve the crystal completely with slight shake. The absorbance of the solution in each well was determined at 550/690 nm on an ELISA Reader as the cell density after treated with the compound. The growth inhibition of compound against breast cancer cells MDA-MB-435S was represented by the cell survival rate, and IC50 was determined from the profile of cell survival rate vs compound concentration. The calculating formula was as follows: cell survival rate=[(cells+compound)A550/690/(cells+compound vector DMSO)A550/690]×100%

[2] = system: colon cancer cells HCT116; assay: MTT assay, HCT116 cells; format: cell-based; settings: Homo sapiens, HCT-116, 72 h
Procedure: as §1
(§2) MDA-MB-435S: human breast cancer cells; HCT116: colon cancer cells; A549: lung adenocarcinoma cells; Hela: uterine cervix cancer cells.
(§3) The tests were performed in the same manner as that of experimental example 1, except that for Hela cells, after counted, each well was seeded with 1000 cells and 100 μl of medium on a 96-well plate.

[3] = system: lung adenocarcinoma cells A549; assay: MTT assay, A549 cells; format: cell-based; settings: Homo sapiens, 72 h
Procedure: as §1, §2, §3

[4] = system: Hela uterine cervix cancer cells; assay: MTT assay, Hela cells; format: cell-based; settings: Homo sapiens, 72 h, 1000 cells per well
Procedure: as §1, §2, §3

[5] = system: human breast cancer cells MDA-MB-435 transplanted on nude mice; assay: Antineoplasmic activity in vivo, MDA-MB-435 transplanted tumor on nude mice; settings: MMC 5 mg/kg, d1, i.v.
Procedure: Dosage: among 3 groups, the dosages of L538 were set at 5, 10 and 20 mg/kg as the high, middle and low dosages, respectively, administrating intravenously 3 times a week; while MMC was administrated intravenously at the first day whit a dosage of 5 mg/kg.
Animals: BALB/CA nude mice, male, 40-45 days old, body weight: 18±1 g, provided by Shanghai Institute of Materia Medica, Chinese Academy of Sciences. […] Animal number in each group: 7 in negative control group, and 4 in administration group.
The amount of inoculated cells was 5×10^6. After the transplanted tumor was formed by inoculation, it was used after passed for 3 generations in nude mice.
Experimental procedure: tumor tissue in productive phase was cut into nubs of about 1.5 mm^3. Under sterile conditions, the nubs were inoculated subcutaneously in right axillary fossa of the nude mice. The diameters of the transplanted tumors on nude mice were measured by a vernier caliper. When the tumors grew up to 100-200 mm^3, the animals were divided randomly into groups. Mice in experimental groups were administered intravenously every other day. […] The total administration duration was 3 weeks. For the positive control, MMC, Mice were administered intravenously once at the first day of a week, and the total administration duration was 3 weeks. Mice in control groups were administrated physiologic saline in equivalent amount. The diameter of the tumor and weight of mice were measured twice a week. The equation for calculating the TV (tumor volume) was as follows: TV=½×a×b^2, • wherein, a is length and b is width. RTV (relative tumor volume) was calculated based on the measured results, and the equation thereof was as follows: RTV=Vt/V0 • wherein, V0 is the tumor volume measured when the mice were grouped (i.e. d0), and Vt is the tumor volume at each measurement. The evaluation index for the antitumor activity was the relative tumor proliferation rateT/C (%).
The calculation equation was as follows: T/C(%)=(TRTV/CRTV)×100, • wherein, TRTV is the RTV of therapeutic Group and CRTV is RTV of negative control group.

[6] = read-out: Cell Survival Rate IC50
[7] = note: MDA-MB-435S, read-out: IC50 (MDA-MB-435)

SMILES	IC50 [1, 6] [µM]	further results
C=CCNC(=O)[C@H](C)NC(=O)[C@H](OC)[C@H](O)[C@@H](O)[C@H](O)/C=C/C(C)(C)C [Compound L372]	3.53	–
CO[C@@H](C(=O)N[C@@H](C)C(=O)NCCO)[C@H](O)[C@@H](O)[C@H](O)/C=C/C(C)(C)C [Compound L376]	5.44	–
C=CCNC(=O)[C@@H](NC(=O)[C@H](OC)[C@H](O)[C@@H](O)[C@H](O)/C=C/C(C)(C)C)C(C)C [Compound L400]	9.68	–
CCOC(=O)CNC(=O)[C@H](C)NC(=O)[C@H](OC)[C@H](O)[C@@H](O)[C@H](O)/C=C/C(C)(C)C [Compound L418]	5.17	IC50 [2]: 1.51 ± 0.215 µM; IC50 [3]: 1.55 ± 0.241 µM; IC50 [4]: 0.572 ± 0.171 µM; IC50 [1, 7]: 5.17 ± 0.941 µM
CO[C@@H](C(=O)N[C@@H](CC(C)C)C(=O)NCCO)[C@H](O)[C@@H](O)[C@H](O)/C=C/C(C)(C)C [Compound L418b]	1.5	–
CO[C@@H](C(=O)N[C@@H](C)C(=O)NCCOC(C)C)[C@H](O)[C@@H](O)[C@H](O)/C=C/C(C)(C)C [Compound L418c]	13.9	–
C=CCNC(=O)[C@H](CCSC)NC(=O)[C@H](OC)[C@H](O)[C@@H](O)[C@H](O)/C=C/C(C)(C)C [Compound L432]	4.57	–
CO[C@@H](C(=O)N[C@@H](C)C(=O)NCCOCC(C)C)[C@H](O)[C@@H](O)[C@H](O)/C=C/C(C)(C)C [Compound L432a]	40	–
CO[C@@H](C(=O)N[C@@H](C)C(=O)NCCCOC(C)C)[C@H](O)[C@@H](O)[C@H](O)/C=C/C(C)(C)C [Compound L432b]	21.6	–
CO[C@@H](C(=O)N[C@@H](C)C(=O)NCCOC(=O)C1CC1)[C@H](O)[C@@H](O)[C@H](O)/C=C/C(C)(C)C [Compound L444g]	6.07	–
CO[C@@H](C(=O)N[C@@H](C)C(=O)NCCOC(=O)C(C)C)[C@H](O)[C@@H](O)[C@H](O)/C=C/C(C)(C)C [Compound L446a]	7.06	–
CO[C@@H](C(=O)N[C@@H](C)C(=O)NCCCOCC(C)C)[C@H](O)[C@@H](O)[C@H](O)/C=C/C(C)(C)C [Compound L446b]	9.56	–
CO[C@@H](C(=O)N[C@@H](Cc1ccccc1)C(=O)NCCO)[C@H](O)[C@@H](O)[C@H](O)/C=C/C(C)(C)C [Compound L452]	5.25	–
CO[C@@H](C(=O)N[C@@H](C)C(=O)NCCOC(=O)C1CCC1)[C@H](O)[C@@H](O)[C@H](O)/C=C/C(C)(C)C [Compound L458]	0.89	–
CO[C@@H](C(=O)N[C@@H](C)C(=O)NCCOC(=O)C(C)(C)C)[C@H](O)[C@@H](O)[C@H](O)/C=C/C(C)(C)C [Compound L460]	3.38	–
CO[C@@H](C(=O)N[C@@H](C)C(=O)NCCOCc1ccccc1)[C@H](O)[C@@H](O)[C@H](O)/C=C/C(C)(C)C [Compound L466]	~10	–
CO[C@@H](C(=O)N[C@@H](C)C(=O)NCC(=O)NC1CCCCC1)[C@H](O)[C@@H](O)[C@H](O)/C=C/C(C)(C)C [Compound L471]	4.79	–
C#CCCCC(=O)OCCNC(=O)[C@H](C)NC(=O)[C@H](OC)[C@H](O)[C@@H](O)[C@H](O)/C=C/C(C)(C)C [Compound L471b]	0.11	–
CO[C@@H](C(=O)N[C@@H](C)C(=O)NCCOC(=O)C1CCCC1)[C@H](O)[C@@H](O)[C@H](O)/C=C/C(C)(C)C [Compound L472-3]	0.72	–
CO[C@@H](C(=O)N[C@@H](C)C(=O)NCC(=O)OC1CCCCC1)[C@H](O)[C@@H](O)[C@H](O)/C=C/C(C)(C)C [Compound L472-4]	1.54	–
CO[C@@H](C(=O)N[C@@H](C)C(=O)NCCCOC1CCCCC1)[C@H](O)[C@@H](O)[C@H](O)/C=C/C(C)(C)C [Compound L472]	> 2.5	–

SMILES	IC50 [1, 6] [µM]	further results
CO[C@@H](C(=O)N[C@@H](C)C(=O)NCCOC(=O)[C@H]1CCCO1)[C@H](O)[C@@H](O)[C@H](O)/C=C/C(C)(C)C [Compound L474]	8.86	–
CO[C@@H](C(=O)N[C@@H](C)C(=O)NCCOC(=O)c1ccccc1)[C@H](O)[C@@H](O)[C@H](O)/C=C/C(C)(C)C [Compound L480]	2.37	–
CO[C@@H](C(=O)N[C@@H](C)C(=O)NCCNC(=O)C1CCCCC1)[C@H](O)[C@@H](O)[C@H](O)/C=C/C(C)(C)C [Compound L485]	3.15	–
C=CCNC(=O)[C@H](CCC(=O)OC(C)(C)C)NC(=O)[C@H](OC)[C@H](O)[C@@H](O)[C@H](O)/C=C/C(C)(C)C [Compound L486e]	2.85	–
CO[C@@H](C(=O)N[C@@H](Cc1c[nH]c2ccccc12)C(=O)NCCO)[C@H](O)[C@@H](O)[C@H](O)/C=C/C(C)(C)C [Compound L491]	5.13	–
CO[C@@H](C(=O)N[C@@H](C)C(=O)NCC(C)OC(=O)C1CCCCC1)[C@H](O)[C@@H](O)[C@H](O)/C=C/C(C)(C)C (stereo partly drawn) [Compound L500a]	0.8	–
CO[C@@H](C(=O)N[C@@H](C)C(=O)NCCCOC(=O)C1CCCCC1)[C@H](O)[C@@H](O)[C@H](O)/C=C/C(C)(C)C [Compound L500b]	0.14	–
CO[C@@H](C(=O)N[C@@H](C)C(=O)NCCOC(=O)CC1CCCCC1)[C@H](O)[C@@H](O)[C@H](O)/C=C/C(C)(C)C [Compound L500c]	1.93	–
CCCCC(CC)C(=O)OCCNC(=O)[C@H](C)NC(=O)[C@H](OC)[C@H](O)[C@@H](O)[C@H](O)/C=C/C(C)(C)C (stereo partly drawn) [Compound L502]	2.55	–
CO[C@@H](C(=O)N[C@H](C(=O)NCCOC(=O)C1CCCCC1)C(C)C)[C@H](O)[C@@H](O)[C@H](O)/C=C/C(C)(C)C [Compound L514c]	2.22	–
CO[C@@H](C(=O)N[C@@H](C)C(=O)NCC1CC(Cc2ccccc2)C(=O)O1)[C@H](O)[C@@H](O)[C@H](O)/C=C/C(C)(C)C (stereo partly drawn) [Compound L521]	25.2	–
CCC(C)[C@H](NC(=O)[C@H](OC)[C@H](O)[C@@H](O)[C@H](O)/C=C/C(C)(C)C)C(=O)NCCOC(=O)C1CCCCC1 (stereo partly drawn) [Compound L528a]	3.24	–
CO[C@@H](C(=O)N[C@@H](CC(C)C)C(=O)NCCOC(=O)C1CCCCC1)[C@H](O)[C@@H](O)[C@H](O)/C=C/C(C)(C)C [Compound L528b]	2.62	–
CCCC[C@H](NC(=O)[C@H](OC)[C@H](O)[C@@H](O)[C@H](O)/C=C/C(C)(C)C)C(=O)NCCOC(=O)C1CCCCC1 [Compound L528c]	2.91	–
CO[C@@H](C(=O)N[C@@H](C)C(=O)NCCOC(=O)OCCCc1ccccc1)[C@H](O)[C@@H](O)[C@H](O)/C=C/C(C)(C)C [Compound L538b]	0.76	–
C=CCNC(=O)[C@H](Cc1cn(COCc2ccccc2)cn1)NC(=O)[C@H](OC)[C@H](O)[C@@H](O)[C@H](O)/C=C/C(C)(C)C [Compound L558b]	1.9	–
CO[C@@H](C(=O)N[C@@H](C)C(=O)NCCOC(=O)CCCCCCCCCN=[N+]=[N-])[C@H](O)[C@@H](O)[C@H](O)/C=C/C(C)(C)C [Compound L572]	0.11	–
CO[C@@H](C(=O)N[C@@H](CCCCNC(=O)OC(C)(C)C)C(=O)NCCOC(=O)C1CCCCC1)[C@H](O)[C@@H](O)[C@H](O)/C=C/C(C)(C)C [Compound L643]	1.56	–
CO[C@@]12[C@H](COC(N)=O)C3=C(C(=O)C(C)=C(N)C3=O)N1C[C@@H]1N[C@@H]12 [MMC, mitomycin, reference compound]	–	T/C (%) ([5]; P <0.05): 44.3%; TV (mm^3) d21 ([5]; d0 132 ± 52): 844 ± 308 mm^3; RTV ([5]; d21): 6.6 ± 1.6; Body Weight(g) Ultimate ([5]; initial 17.8 g): 21.7 g
COc1cccc2c1C(=O)c1c(O)c3c(c(O)c1C2=O)C[C@@](O)(C(=O)CO)C[C@@H]3O[C@H]1C[C@H](N)[C@H](O)[C@H](C)O1 [adriamycin, reference compound]	0.51	IC50 [2]: 0.11 ± 0.013 µM; IC50 [3]: 0.261 ± 0.065 µM; IC50 [1, 7]: 0.51 ± 0.124 µM
